From US12410207B2, “Galactoside inhibitor of galectins” (GALECTO BIOTECH AB, priority 2019, dated 2025)

Experiments:
MDR1 = assay: MDCK-MDR1 in vitro cell model of passage over Blood Brain Barrier; format: in vitro ADME; conditions: dog
MDCK-MDR1 = assay: as above; format: in vitro ADME; conditions: MDCK-MDR1, result in words
Galectin-1 = Galectin-1 (Homo sapiens, UniProt P09382); assay: Fluorescence anisotropy assay, inhibition of galectin / fluorescein tagged saccharide probe interaction; conditions: compound as inhibitor of probe binding
Sequence of Galectin-1 (P09382 whole entry, species assumed): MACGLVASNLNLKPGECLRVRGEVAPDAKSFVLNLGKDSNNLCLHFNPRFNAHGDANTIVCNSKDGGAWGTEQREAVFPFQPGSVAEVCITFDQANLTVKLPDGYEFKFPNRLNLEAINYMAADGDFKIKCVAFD
Procedure: (§1) The affinity of Example 1-45 for galectins were determined by a fluorescence anisotropy assay where the compound was used as an inhibitor of the interaction between galectin and a fluorescein tagged saccharide probe as described Sörme, P., Kahl-Knutsson, B., Huflejt, M., Nilsson, U. J., and Leffler H. (2004) Fluorescence polarization as an analytical tool to evaluate galectin-ligand interactions. Anal. Biochem. 334: 36-47, (Sorme et al., 2004) and Monovalent interactions of Galectin-1 By Salomonsson, Emma; Larumbe, Amaia; Tejler, Johan; Tullberg, Erik; Rydberg, Hanna; Sundin, Anders; Khabut, Areej; Frejd, Torbjorn; Lobsanov, Yuri D.; Rini, James M.; et al, From Biochemistry (2010), 49(44), 9518-9532, (Salomonsson et al., 2010).

Galectin-3 = Galectin-3 (Homo sapiens, UniProt P17931); assay: as above; conditions: compound as inhibitor of probe binding
Sequence of Galectin-3 (P17931 whole entry, species assumed): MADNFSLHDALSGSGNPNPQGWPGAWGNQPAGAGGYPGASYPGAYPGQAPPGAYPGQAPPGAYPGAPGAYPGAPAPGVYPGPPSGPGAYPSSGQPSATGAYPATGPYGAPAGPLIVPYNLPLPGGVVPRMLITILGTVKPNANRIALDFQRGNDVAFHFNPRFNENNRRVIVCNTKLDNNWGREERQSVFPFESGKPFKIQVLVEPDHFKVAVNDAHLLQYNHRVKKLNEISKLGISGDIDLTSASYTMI
Procedure: as §1

[1] = MDCK-MDR1, first column, headed A > B
[2] = MDCK-MDR1, second column, also headed A > B

Papp (MDR1; [1]) [×10⁻⁶ cm/s]	Papp (MDR1; [2]) [×10⁻⁶ cm/s]	efflux and uptake in in vitro cell model of BBB passage (MDCK-MDR1)	Kd (Galectin-1) [µM]	Kd (Galectin-3) [nM]	Compound
25	50	low or no efflux and high uptake	27.6	20	OCC1O[C@H](Sc2cncc(Cl)c2)C(O)C(n2cc(-c3cc(F)c(Cl)c(F)c3)cn2)[C@H]1O (stereo partly drawn) [Example 2, 5-Chloropyridin-3-yl 3-[4-(4-chloro-3,5-difluorophenyl)-1H-1,2-pyrazol-1-yl]-3-deoxy-1-thio-α-D-galactopyranoside]
14	39	low or no efflux and high uptake	12.8	28	OCC1O[C@H](Sc2cncc(Cl)c2)C(O)C(n2cc(-c3cc(F)c(F)c(F)c3)cn2)[C@H]1O (stereo partly drawn) [Example 3, 5-Chloropyridin-3-yl 3-deoxy-3-[4-(3,4,5-trifluorophenyl)-1H-1,2-pyrazol-1-yl]-1-thio-α-D-galactopyranoside]
18	52	low or no efflux and high uptake	23	16	OCC1O[C@H](Sc2cncc(Br)c2)C(O)C(n2cc(-c3cc(F)c(Cl)c(F)c3)cn2)[C@H]1O (stereo partly drawn) [Example 6, 5-Bromopyridin-3-yl 3-[4-(4-chloro-3,5-difluorophenyl)-1H-1,2-pyrazol-1-yl]-3-deoxy-1-thio-α-D-galactopyranoside]
–	–	–	4.1	1600	OCC1O[C@H](Sc2cncc(Cl)c2)C(O)C(n2cc(-c3ccc(F)cn3)cn2)[C@H]1O (stereo partly drawn) [Example 19, 5-Chloropyridin-3-yl 3-deoxy-3-[4-(5-fluoropyridin-2-yl)-1H-1,2-pyrazol-1-yl]-1-thio-α-D-galactopyranoside]
–	–	–	10.2	630	OCC1O[C@H](Sc2cncc(Cl)c2)C(O)C(n2cc(-c3cc(F)ccn3)cn2)[C@H]1O (stereo partly drawn) [Example 20, 5-Chloropyridin-3-yl 3-deoxy-3-[4-(4-fluoropyridin-2-yl)-1H-1,2-pyrazol-1-yl]-1-thio-α-D-galactopyranoside]
–	–	–	8.9	12700	OCC1O[C@H](Sc2cncc(Cl)c2)C(O)C(n2cc(-c3cc[nH]n3)cn2)[C@H]1O (stereo partly drawn) [Example 21, 5-Chloropyridin-3-yl 3-deoxy-3-[4-(1H-1,2-pyrazol-3-yl)-1H-1,2-pyrazol-1-yl]-1-thio-α-D-galactopyranoside]
–	–	–	14.7	9600	Cn1ccc(-c2cnn(C3C(O)[C@@H](Sc4cncc(Cl)c4)OC(CO)[C@@H]3O)c2)n1 (stereo partly drawn) [Example 22, 5-Chloropyridin-3-yl 3-deoxy-3-[4-(1-methyl-1,2-pyrazol-3-yl)-1H-1,2-pyrazol-1-yl]-1-thio-α-D-galactopyranoside]
–	–	–	3.4	9000	OCC1O[C@H](Sc2cncc(Cl)c2)C(O)C(n2cc(-c3ncc[nH]3)cn2)[C@H]1O (stereo partly drawn) [Example 23, 5-Chloropyridin-3-yl 3-deoxy-3-[4-(1H-imidazol-2-yl)-1H-1,2-pyrazol-1-yl]-1-thio-α-D-galactopyranoside]
–	–	–	6.1	10300	OCC1O[C@H](Sc2cncc(Cl)c2)C(O)C(n2cc(-c3ncco3)cn2)[C@H]1O (stereo partly drawn) [Example 24, 5-Chloropyridin-3-yl 3-deoxy-3-[4-(oxazol-2-yl)-1H-1,2-pyrazol-1-yl]-1-thio-α-D-galactopyranoside]
–	–	–	1.3	9600	OCC1O[C@H](Sc2cncc(Cl)c2)C(O)C(n2cc(-c3cscn3)cn2)[C@H]1O (stereo partly drawn) [Example 25, 5-Chloropyridin-3-yl 3-deoxy-3-[4-(thiazol-4-yl)-1H-1,2-pyrazol-1-yl]-1-thio-α-D-galactopyranoside]
–	–	–	2.3	9900	OCC1O[C@H](Sc2cncc(Cl)c2)C(O)C(n2cc(-c3nccs3)cn2)[C@H]1O (stereo partly drawn) [Example 26, 5-Chloropyridin-3-yl 3-deoxy-3-[4-(thiazol-2-yl)-1H-1,2-pyrazol-1-yl]-1-thio-α-D-galactopyranoside]
–	–	–	0.59	1500	OCC1O[C@H](Sc2cncc(Cl)c2)C(O)C(n2cc(-c3nc(Cl)cs3)cn2)[C@H]1O (stereo partly drawn) [Example 27, 5-Chloropyridin-3-yl 3-[4-(4-chlorothiazol-2-yl)-1H-1,2-pyrazol-1-yl]-3-deoxy-1-thio-α-D-galactopyranoside]
–	–	–	0.52	1200	OCC1O[C@H](Sc2cncc(Br)c2)C(O)C(n2cc(-c3nc(Cl)cs3)cn2)[C@H]1O (stereo partly drawn) [Example 28, 5-Bromopyridin-3-yl 3-[4-(4-chlorothiazol-2-yl)-1H-1,2-pyrazol-1-yl]-3-deoxy-1-thio-α-D-galactopyranoside]
–	–	–	0.49	1500	N#Cc1ccc(Cl)cc1S[C@H]1OC(CO)[C@H](O)C(n2cc(-c3nc(Cl)cs3)cn2)C1O (stereo partly drawn) [Example 29, 5-Chloro-2-cyanophenyl 3-[4-(4-chlorothiazol-2-yl)-1H-1,2-pyrazol-1-yl]-3-deoxy-1-thio-α-D-galactopyranoside]
–	–	–	0.51	1100	N#Cc1ncc(Cl)cc1S[C@H]1OC(CO)[C@H](O)C(n2cc(-c3nc(Cl)cs3)cn2)C1O (stereo partly drawn) [Example 30, 5-Chloro-2-cyanopyridin-3-yl 3-[4-(4-chlorothiazol-2-yl)-1H-1,2-pyrazol-1-yl]-3-deoxy-1-thio-α-D-galactopyranoside]
–	–	–	0.14	3400	OCC1O[C@H](Sc2cncc(Cl)c2)C(O)C(n2cc(-c3csc(O)n3)cn2)[C@H]1O (stereo partly drawn) [Example 31, 5-Chloropyridin-3-yl 3-deoxy-3-[4-(2-hydroxythiazol-4-yl)-1H-1,2-pyrazol-1-yl]-1-thio-α-D-galactopyranoside]
–	–	–	12.7	67	OCC1O[C@H](Sc2cncc(Cl)c2)C(O)C(n2cnc(-c3cc(F)c(F)c(F)c3)c2)[C@H]1O (stereo partly drawn) [Example 36, 5-Chloropyridin-3-yl 3-deoxy-3-[4-(3,4,5-trifluorophenyl)-1H-1,3-imidazol-1-yl]-1-thio-α-D-galactopyranoside]
–	–	–	5.1	13	OCC1O[C@H](Sc2cc(Cl)cnc2N2CC(CO)(CO)C2)C(O)C(n2cc(-c3cc(F)c(F)c(F)c3)cn2)[C@H]1O (stereo partly drawn) [Example 37, 5-Chloro-[3,3-bis(hydroxymethyl)azetidin-1-yl]pyridin-3-yl 3-deoxy-3-[4-(3,4,5-trifluorophenyl)-1H-1,2-pyrazol-1-yl]-1-thio-α-D-galactopyranoside]
–	–	–	51	450	COC1C(n2ccc(-c3cc(F)c(F)c(F)c3)n2)[C@@H](O)C(CO)O[C@@H]1Sc1cncc(Cl)c1 (stereo partly drawn) [Example 38, 5-Chloropyridin-3-yl 3-deoxy-3-[3-(3,4,5-trifluorophenyl)-1H-1,2-pyrazol-1-yl]-2-O-methyl-1-thio-α-D-galactopyranoside]
–	–	–	> 100	300	OC[C@H]1O[C@H](Sc2ccc(Cl)c(Cl)c2)[C@H](O)[C@@H](c2nc(-c3cc(F)c(F)c(F)c3)co2)[C@H]1O [Example 39, 3,4-Dichlorophenyl 3-deoxy-3-[4-(3,4,5-trifluorophenyl)-oxazol-2-yl]-1-thio-α-D-galactopyranoside]
–	–	–	> 100	2000	OC[C@H]1O[C@H](Sc2ccc(Cl)c(Cl)c2)[C@H](O)[C@@H](c2nc(-c3cc(F)c(F)c(F)c3)cs2)[C@H]1O [Example 40, 3,4-Dichlorophenyl 3-deoxy-3-[4-(3,4,5-trifluorophenyl)-thiazol-2-yl]-1-thio-α-D-galactopyranoside]
–	–	–	> 100	1200	OC[C@H]1O[C@H](Sc2ccc(Cl)c(Cl)c2)[C@H](O)[C@@H](c2nnc(-c3cc(F)c(F)c(F)c3)o2)[C@H]1O [Example 41, 3,4-Dichlorophenyl 3-deoxy-3-[5-(3,4,5-trifluorophenyl)-1,3,4-oxadiazol-2-yl]-1-thio-α-D-galactopyranoside]
–	–	–	0.18	63000	COC1C(n2cc(-c3csc(O)n3)cn2)[C@@H](O)C(CO)O[C@@H]1Sc1ccc(Cl)c(Cl)c1 (stereo partly drawn) [Example 42, 3,4-Dichlorophenyl 3-deoxy-3-[4-(2-hydroxythiazol-4-yl)-1H-1,2-pyrazol-1-yl]-2-O-methyl-1-thio-α-D-galactopyranoside]
–	–	–	2.1	11000	COC1C(n2cc(-c3csc(N)n3)cn2)[C@@H](O)C(CO)O[C@@H]1Sc1ccc(Cl)c(Cl)c1 (stereo partly drawn) [Example 43, 3,4-Dichlorophenyl 3-[4-(2-aminothiazol-4-yl)-1H-1,2-pyrazol-1-yl]-3-deoxy-2-O-methyl-1-thio-α-D-galactopyranoside]
–	–	–	50	40	COC1C(n2cc(-c3cc(F)c(Cl)c(F)c3)cn2)[C@@H](O)C(CO)O[C@@H]1Sc1cc(Cl)ccc1C#N (stereo partly drawn) [Example 44, 5-Chloro-2-cyanophenyl 3-[4-(4-chloro-3,5-difluorophenyl)-1H-1,2-pyrazol-1-yl]-3-deoxy-2-O-methyl-1-thio-α-D-galactopyranoside]
–	–	–	8.5	30	COC1C(n2cc(-c3cc(F)c(F)c(F)c3)cn2)[C@@H](O)C(CO)O[C@@H]1Sc1cc(Cl)ccc1C#N (stereo partly drawn) [Example 45, 5-Chloro-2-cyanophenyl 3-deoxy-3-[4-(3,4,5-trifluorophenyl)-1H-1,2-pyrazol-1-yl]-2-O-methyl-1-thio-α-D-galactopyranoside]
